Measurements taken from US20070128217A1 (priority 2003, published 2007).

Key:
[1] = system: antibodies in sera from SARS patients (sera 1a, 1b, 2, 6, 37, 62, London, SARS-yellow, SARS-green); format: binding, human; parameters: Binding of serum 6 to linear peptides of protein X1 of SARS-CoV Urbani / Binding of serum 37 to linear peptides of protein X1 of SARS-CoV Urbani / Binding of serum 6 to looped/cyclic peptide (PEPSCAN-ELISA) / Binding of serum 37 to looped/cyclic peptide (PEPSCAN-ELISA) / Binding of serum 37 to looped/cyclic peptides of protein X1 of SARS-CoV Urbani / Binding of serum 6 to linear peptides of protein X2 / Binding of serum 37 to linear peptides of protein X2 / Binding of serum 37 to looped/cyclic peptides of protein X2 of SARS-CoV Urbani / Binding of serum 6 to linear peptides of protein M of SARS-CoV Urbani / Binding of serum 37 to linear peptides of protein M of SARS-CoV Urbani / Binding of serum 6 to looped/cyclic peptides of protein M of SARS-CoV Urbani / Binding of serum 37 to looped/cyclic peptides of protein M of SARS-CoV Urbani / Binding of serum 6 to linear peptides of protein X3 of SARS-CoV Urbani / Binding of serum 37 to linear peptides of protein X3 of SARS-CoV Urbani / Binding of serum 37 to looped/cyclic peptides of protein X3 of SARS-CoV Urbani / Binding of serum 6 to linear peptides of protein X4 of SARS-CoV Urbani / Binding of serum 37 to linear peptides of protein X4 of SARS-CoV Urbani / Binding of serum 37 to looped/cyclic peptides of protein X4 of SARS-CoV Urbani / Binding of serum 6 to linear peptides of protein X5 of SARS-CoV Urbani / Binding of serum 37 to linear peptides of protein X5 of SARS-CoV Urbani / Binding of serum 37 to looped/cyclic peptides of protein X5 of SARS-CoV Urbani / Binding of serum 6 to linear peptides of protein N of SARS-CoV Urbani / Binding of serum 37 to linear peptides of protein N of SARS-CoV Urbani / Binding of serum 6 to linear peptide (PEPSCAN-ELISA) / Binding of serum 1a to looped/cyclic peptides of protein N of SARS-CoV Urbani / Binding of serum 1b to looped/cyclic peptides of protein N of SARS-CoV Urbani / Binding of serum 2 to looped/cyclic peptides of protein N of SARS-CoV Urbani / Binding of serum 6 to looped/cyclic peptides of protein N of SARS-CoV Urbani / Binding of serum 37 to looped/cyclic peptides of protein N of SARS-CoV Urbani / Binding of serum 62 to looped/cyclic peptides of protein N of SARS-CoV Urbani / Binding of serum London to looped/cyclic peptides of protein N of SARS-CoV Urbani / Binding of serum SARS-green to looped/cyclic peptides of protein N of SARS-CoV Urbani: unit not given here
[2] = system: control sera (pooled serum of ten healthy LUMC hospital workers; commercial negative donor pooled serum from the Dutch bloodbank); format: binding, human; parameters: Binding of Control serum LUMC to linear peptides / Binding of Control serum Blood-bank to linear peptides / Binding of Control serum LUMC to looped peptides / Binding of Control Serum Blood-Bank to Looped peptides / Binding of Control serum LUMC to linear peptides of the protein M of SARS-CoV Urbani / Binding of Control serum Blood-bank to linear peptides of the protein M of SARS-CoV Urbani / Binding of Control serum LUMC to looped peptides of the protein M of SARS-CoV Urbani / Binding of Control Serum Blood-Bank to Looped peptides of the protein M of SARS-CoV Urbani: unit not given here
[3] = system: rabbit serum obtained by immunizing a rabbit with the SARS-CoV strain Frankfurt 1; format: binding; parameters: Binding of a rabbit serum to linear peptides / Binding of a rabbit serum to looped peptides / Rabbit serum linear peptides / Rabbit serum looped peptides / Binding of a rabbit serum to linear peptides of protein N of SARS-CoV Urbani (Rabbit serum linear peptides) / Binding of a rabbit serum to looped/cyclic peptides of protein N of SARS-CoV Urbani (Rabbit serum looped peptides): unit not given here

**Q.** For ALGKVLPFHRWHTMV, which “Binding of serum 1a to linear peptides of protein X5 of SARS-CoV Urbani” value [1] is on record?
**A.** 0.9

**Q.** And the “Binding of serum 1a to looped/cyclic peptides of protein X5 of SARS-CoV Urbani” value [1]?
**A.** 0.4

**Q.** And the “Binding of serum 1b to linear peptides of protein X5 of SARS-CoV Urbani” value [1]?
**A.** 0.5

**Q.** And the “Binding of serum 1b to looped/cyclic peptides of protein X5 of SARS-CoV Urbani” value [1]?
**A.** 0.0

**Q.** And the “Binding of serum 2 to linear peptides of protein X5 of SARS-CoV Urbani” value [1]?
**A.** 0.7

**Q.** And the “Binding of serum 2 to looped/cyclic peptides of protein X5 of SARS-CoV Urbani” value [1]?
**A.** 0.6

**Q.** What about the “Binding of serum 6 to linear peptides of protein X5 of SARS-CoV Urbani” value [1] of the same sequence?
**A.** 0.6

**Q.** What about the “Binding of serum 6 to looped/cyclic peptides of protein X5 of SARS-CoV Urbani” value [1] of the same sequence?
**A.** 0.3

**Q.** And the “Binding of serum 37 to linear peptides of protein X5 of SARS-CoV Urbani” value [1]?
**A.** 0.6

**Q.** What about the “Binding of serum 37 to looped/cyclic peptides of protein X5 of SARS-CoV Urbani” value [1] of the same sequence?
**A.** 0.5

**Q.** And the “Binding of serum 62 to linear peptides of protein X5 of SARS-CoV Urbani” value [1]?
**A.** 0.7

**Q.** What about the “Binding of serum 62 to looped/cyclic peptides of protein X5 of SARS-CoV Urbani” value [1] of the same sequence?
**A.** 0.5

**Q.** What about the “Binding of serum London to linear peptides of protein X5 of SARS-CoV Urbani” value [1] of the same sequence?
**A.** 0.7

**Q.** What about the “Binding of serum London to looped/cyclic peptides of protein X5 of SARS-CoV Urbani” value [1] of the same sequence?
**A.** 0.2

**Q.** What about the “Binding of serum SARS-green to linear peptides of protein X5 of SARS-CoV Urbani” value [1] of the same sequence?
**A.** 0.5

**Q.** And the “Binding of serum SARS-green to looped/cyclic peptides of protein X5 of SARS-CoV Urbani” value [1]?
**A.** 0.6

**Q.** What about the “Binding of serum SARS-yellow to linear peptides of protein X5 of SARS-CoV Urbani” value [1] of the same sequence?
**A.** 0.2

**Q.** What about the “Binding of serum SARS-yellow to looped/cyclic peptides of protein X5 of SARS-CoV Urbani” value [1] of the same sequence?
**A.** 0.1

**Q.** What about the “Binding of Control Serum Blood-Bank to Looped peptides” value [2] of the same sequence?
**A.** 0.1

**Q.** What about the “Binding of Control serum Blood-bank to linear peptides” value [2] of the same sequence?
**A.** 0.8

**Q.** And the “Binding of Control serum LUMC to linear peptides” value [2]?
**A.** 0.5

**Q.** And the “Binding of Control serum LUMC to looped peptides” value [2]?
**A.** 0.5

**Q.** What about the “Rabbit serum linear peptides” value [3] of the same sequence?
**A.** 0.6

**Q.** And the “Rabbit serum looped peptides” value [3]?
**A.** 0.1

**Q.** What does the source list for DLPKEITVATSRTLS?
**A.** Binding of serum 1a to linear peptides of protein M of SARS-CoV Urbani [1]: 0.7; Binding of serum 1a to looped/cyclic peptides of protein M of SARS-CoV Urbani [1]: 0.5; Binding of serum 1b to linear peptides of protein M of SARS-CoV Urbani [1]: 0.2; Binding of serum 1b to looped/cyclic peptides of protein M of SARS-CoV Urbani [1]: 0.5; Binding of serum 2 to linear peptides of protein M of SARS-CoV Urbani [1]: 0.7; Binding of serum 2 to looped/cyclic peptides of protein M of SARS-CoV Urbani [1]: 0.6; Binding of serum 6 to linear peptides of protein M of SARS-CoV Urbani [1]: 0.2; Binding of serum 6 to looped/cyclic peptides of protein M of SARS-CoV Urbani [1]: 0.8; Binding of serum 37 to linear peptides of protein M of SARS-CoV Urbani [1]: 0.5; Binding of serum 37 to looped/cyclic peptides of protein M of SARS-CoV Urbani [1]: 0.7; Binding of serum 62 to linear peptides of protein M of SARS-CoV Urbani [1]: 0.7; Binding of serum 62 to looped/cyclic peptides of protein M of SARS-CoV Urbani [1]: 0.6; Binding of serum London to linear peptides of protein M of SARS-CoV Urbani [1]: 0.3; Binding of serum London to looped/cyclic peptides of protein M of SARS-CoV Urbani [1]: 0.4; Binding of serum SARS-green to linear peptides of protein M of SARS-CoV Urbani [1]: 0.3; Binding of serum SARS-green to looped/cyclic peptides of protein M of SARS-CoV Urbani [1]: 0.4; Binding of serum SARS-yellow to linear peptides of protein M of SARS-CoV Urbani [1]: 0.0; Binding of serum SARS-yellow to looped/cyclic peptides of protein M of SARS-CoV Urbani [1]: 0.7; Binding of Control Serum Blood-Bank to Looped peptides of the protein M of SARS-CoV Urbani [2]: 0.7; Binding of Control serum Blood-bank to linear peptides of the protein M of SARS-CoV Urbani [2]: 0.5; Binding of Control serum LUMC to linear peptides of the protein M of SARS-CoV Urbani [2]: 0.2; Binding of Control serum LUMC to looped peptides of the protein M of SARS-CoV Urbani [2]: 0.7; Rabbit serum linear peptides [3]: 0.1; Rabbit serum looped peptides [3]: 0.3

**Q.** How did the “Binding of serum 1a to linear peptides of protein X1 of SARS-CoV Urbani” value [1] turn out when IYFLQCINACRIIMR was run?
**A.** 0.7

**Q.** And the “Binding of serum 1a to looped/cyclic peptide (PEPSCAN-ELISA)” value [1]?
**A.** 0.6

**Q.** What about the “Binding of serum 1b to linear peptides of protein X1 of SARS-CoV Urbani” value [1] of the same sequence?
**A.** 0.6

**Q.** What about the “Binding of serum 1b to looped/cyclic peptide (PEPSCAN-ELISA)” value [1] of the same sequence?
**A.** 0.4

**Q.** What about the “Binding of serum 2 to linear peptides of protein X1 of SARS-CoV Urbani” value [1] of the same sequence?
**A.** 0.6

**Q.** And the “Binding of serum 2 to looped/cyclic peptide (PEPSCAN-ELISA)” value [1]?
**A.** 0.8

**Q.** What about the “Binding of serum 6 to linear peptides of protein X1 of SARS-CoV Urbani” value [1] of the same sequence?
**A.** 0.5

**Q.** And the “Binding of serum 6 to looped/cyclic peptide (PEPSCAN-ELISA)” value [1]?
**A.** 1.0

**Q.** What about the “Binding of serum 37 to linear peptides of protein X1 of SARS-CoV Urbani” value [1] of the same sequence?
**A.** 0.7

**Q.** What about the “Binding of serum 37 to looped/cyclic peptide (PEPSCAN-ELISA)” value [1] of the same sequence?
**A.** 0.6

**Q.** What about the “Binding of serum 62 to linear peptides of protein X1 of SARS-CoV Urbani” value [1] of the same sequence?
**A.** 0.7

**Q.** What about the “Binding of serum 62 to looped/cyclic peptide (PEPSCAN-ELISA)” value [1] of the same sequence?
**A.** 0.7

**Q.** What about the “Binding of serum London to linear peptides of protein X1 of SARS-CoV Urbani” value [1] of the same sequence?
**A.** 0.3

**Q.** And the “Binding of serum London to looped/cyclic peptide (PEPSCAN-ELISA)” value [1]?
**A.** 1.6

**Q.** What about the “Binding of serum SARS-green to linear peptides of protein X1 of SARS-CoV Urbani” value [1] of the same sequence?
**A.** 0.2

**Q.** And the “Binding of serum SARS-green to looped/cyclic peptide (PEPSCAN-ELISA)” value [1]?
**A.** 0.2

**Q.** What about the “Binding of serum SARS-yellow to linear peptides of protein X1 of SARS-CoV Urbani” value [1] of the same sequence?
**A.** 0.5

**Q.** And the “Binding of serum SARS-yellow to looped/cyclic peptide (PEPSCAN-ELISA)” value [1]?
**A.** 0.6

**Q.** And the “Binding of Control Serum Blood-Bank to Looped peptides” value [2]?
**A.** 0.6

**Q.** And the “Binding of Control serum Blood-bank to linear peptides” value [2]?
**A.** 0.7

**Q.** What about the “Binding of Control serum LUMC to linear peptides” value [2] of the same sequence?
**A.** 0.7

**Q.** And the “Binding of Control serum LUMC to looped peptides” value [2]?
**A.** 0.6

**Q.** And the “Binding of a rabbit serum to linear peptides” value [3]?
**A.** 0.5

**Q.** What about the “Binding of a rabbit serum to looped peptides” value [3] of the same sequence?
**A.** 0.9
